Values after ≈ are worked out from the molar mass of the structure shown. Read-outs that look alike come from different tables or passages of the source.
What was measured:
human A1 AR = biological target: T1, human A1 AR (Homo sapiens, UniProt P30542); test: Radioligand binding assay at human A1 AR vs. [^3H]CCPA; conditions: human (h); CHO cell membranes; n = 3
T1 construct: expressed in transfected cells; host or cells: CHO cells
T1 sequence (P30542 1-326): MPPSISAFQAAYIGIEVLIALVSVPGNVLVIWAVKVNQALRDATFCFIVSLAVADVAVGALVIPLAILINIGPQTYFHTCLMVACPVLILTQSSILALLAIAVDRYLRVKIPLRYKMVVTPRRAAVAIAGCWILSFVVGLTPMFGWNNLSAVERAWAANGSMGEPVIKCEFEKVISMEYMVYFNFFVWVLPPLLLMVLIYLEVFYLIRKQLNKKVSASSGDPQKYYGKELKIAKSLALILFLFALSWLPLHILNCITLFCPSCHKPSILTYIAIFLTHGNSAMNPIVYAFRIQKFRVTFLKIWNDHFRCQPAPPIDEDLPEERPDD
Procedure, shortened: (§1)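 Competition binding; rat A1: brain cortex membranes; rat A2A: brain striatum membranes; human A1/A2A/A2B/A3: membranes from CHO cells each expressing one human subtype. Affinity only, no functional testing.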

rat A1 AR = biological target: T2, rat A1 AR (Rattus norvegicus, UniProt P25099); test: Radioligand binding assay at rat A1 AR (rat brain cortex) vs. [^3H]CCPA; conditions: rat (r); rat brain cortex; n = 3
T2 construct: A1 ARs of rat brain cortical membrane; from tissue; host or cells: rat brain cortex membranes
T2 sequence (P25099 1-326): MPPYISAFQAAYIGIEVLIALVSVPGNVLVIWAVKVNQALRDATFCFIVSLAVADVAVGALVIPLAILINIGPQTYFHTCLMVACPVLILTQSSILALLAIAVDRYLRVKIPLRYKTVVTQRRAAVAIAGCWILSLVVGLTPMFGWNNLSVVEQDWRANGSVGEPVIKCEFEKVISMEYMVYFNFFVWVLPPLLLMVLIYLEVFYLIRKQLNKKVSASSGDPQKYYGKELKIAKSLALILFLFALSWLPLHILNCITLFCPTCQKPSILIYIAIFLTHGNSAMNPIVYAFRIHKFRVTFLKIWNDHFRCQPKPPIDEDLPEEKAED
Procedure, shortened: as §1

rat A2A AR = biological target: T3, rat A2A AR (Rattus norvegicus, UniProt P30543); test: Radioligand binding assay at rat A2A AR (rat brain striatum) vs. [^3H]MSX-2; conditions: rat (r); for Ki: rat brain striatum, n = 3, read-out: Ki ± SEM, A2A vs. [^3H]MSX-2
T3 construct: A2A ARs of rat brain striatal membrane preparations; from tissue; host or cells: rat brain striatum membranes
Procedure, shortened: as §1

human A2B AR = biological target: T4, human A2B AR (Homo sapiens, UniProt P29275); test: Radioligand binding assay at human A2B AR vs. [^3H]PSB-603
T4 construct: expressed in transfected cells; host or cells: CHO cells
T4 sequence (P29275 1-332): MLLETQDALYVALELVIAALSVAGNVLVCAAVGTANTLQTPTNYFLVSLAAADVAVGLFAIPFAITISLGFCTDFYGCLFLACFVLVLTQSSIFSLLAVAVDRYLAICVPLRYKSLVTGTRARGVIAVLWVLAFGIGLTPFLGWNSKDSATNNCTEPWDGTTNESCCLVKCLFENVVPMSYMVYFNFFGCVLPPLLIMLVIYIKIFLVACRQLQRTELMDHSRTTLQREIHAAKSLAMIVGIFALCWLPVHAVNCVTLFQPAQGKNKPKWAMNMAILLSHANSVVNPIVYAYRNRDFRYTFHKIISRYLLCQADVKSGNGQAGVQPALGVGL
Procedure, shortened: as §1

human A3 AR = biological target: T5, human A3 AR (Homo sapiens, UniProt P0DMS8); test: Radioligand binding assay at human A3 AR vs. [^3H]PSB-11; conditions: CHO cell membranes, n = 2 (n = 3 where marked a), read-out: Ki ± SEM, A3 vs. [^3H]PSB-11
T5 construct: expressed in transfected cells; host or cells: CHO cells
T5 sequence (P0DMS8 1-318): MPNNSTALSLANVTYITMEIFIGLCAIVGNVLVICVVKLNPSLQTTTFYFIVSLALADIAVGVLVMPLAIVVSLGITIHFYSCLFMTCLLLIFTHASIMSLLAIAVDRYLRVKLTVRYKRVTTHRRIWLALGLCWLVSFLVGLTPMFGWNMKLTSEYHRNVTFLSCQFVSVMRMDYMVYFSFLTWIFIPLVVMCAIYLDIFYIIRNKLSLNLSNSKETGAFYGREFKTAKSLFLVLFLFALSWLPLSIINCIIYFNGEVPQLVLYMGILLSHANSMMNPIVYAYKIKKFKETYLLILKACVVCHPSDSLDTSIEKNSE
Procedure, shortened: as §1

recombinant human MAO-B [1] = biological target: T6, recombinant human MAO-B (Homo sapiens, UniProt P27338); test: Monoamine oxidase assay (Amplex Red), MAO-B; format: biochemical; conditions: for IC50: n = 3, read-out: IC50 ± SEM, Human MAO-B
T6 construct: purchased Sigma-Aldrich M7441; host or cells: baculovirus-infected insect cells
T6 sequence (P27338 1-520): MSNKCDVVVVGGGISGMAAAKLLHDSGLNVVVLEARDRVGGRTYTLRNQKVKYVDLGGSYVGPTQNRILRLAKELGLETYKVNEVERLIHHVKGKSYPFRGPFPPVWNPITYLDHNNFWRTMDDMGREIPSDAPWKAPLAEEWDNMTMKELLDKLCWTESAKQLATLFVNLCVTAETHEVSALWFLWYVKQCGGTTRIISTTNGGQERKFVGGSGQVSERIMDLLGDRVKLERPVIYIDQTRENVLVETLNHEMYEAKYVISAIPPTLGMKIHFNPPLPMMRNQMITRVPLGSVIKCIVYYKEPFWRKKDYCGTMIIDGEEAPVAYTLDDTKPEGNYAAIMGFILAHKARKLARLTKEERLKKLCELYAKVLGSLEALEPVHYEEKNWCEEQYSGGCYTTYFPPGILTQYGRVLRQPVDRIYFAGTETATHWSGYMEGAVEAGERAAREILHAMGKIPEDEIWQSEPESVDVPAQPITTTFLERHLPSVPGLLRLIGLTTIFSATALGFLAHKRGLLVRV
Procedure, shortened: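 Inhibition was measured with an Amplex Red monoamine oxidase assay, using human MAO-A and MAO-B produced recombinantly in baculovirus-infected insect cells. For rat MAO-B, liver mitochondria-enriched fractions from male Sprague Dawley rats served as enzyme source.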

[2] = Thermodynamic solubility measurements; format: physicochemical; conditions: thermodynamic from solid, thermodynamic solubility
Source text: This is expected to facilitate dissolution in the stomach. Depending on the substitution pattern they may also be well soluble at higher pH values (Brunschweiger et al., [2014]). In the present study we measured thermodynamic solubility of only very few compounds exemplarily (14a-e, 14g, 15f,g) and confirmed their high solubility at pH 1 (see Table S1 in Supplementary Material). Most of these compounds were still soluble at pH 7.4. The best soluble derivative was the 3-ethyl-1-methyl-8-m-fluorobenzyl derivative 14g with solubilities of >1.5 g/L (4.2 mM) at pH 1, 50 mg/L (0.14 mM) at pH 4, and 40 mg/L ([…]) at pH 7.4.
Table S1. Solubility of selected compounds at three different pH values (in mg/mL).a
Compound pH 1 pH 4 pH 7.4
adetermined by thermodynamic solubility measurements.

human A2A AR = biological target: T7, human A2A AR (Homo sapiens, UniProt P29274); test: Radioligand binding assay at human A2A AR vs. [^3H]MSX-2; conditions: CHO cell membranes, n = 3, read-out: Ki ± SEM, A2A vs. [^3H]MSX-2
T7 construct: expressed in transfected cells; host or cells: CHO cells
Description: Membrane preparations and radioligand binding assays at rat A1 (rat brain cortex) and rat A2A ARs (rat brain striatum) were performed as previously described (Ozola et al., [2003]; Alnouri et al., [2015]). For assays at human A1, A2A, A2B, and A3 ARs, CHO cell membranes expressing one of the human AR subtypes were used as previously reported (Klotz et al., [1998]; Alnouri et al., [2015]; De Filippo et al., [2016]).
The synthesized tetrahydropyrazino[2,1-f ]purinediones 13–20 were evaluated in radioligand binding assays for their affinity to A1 ARs of rat brain cortical membrane and to A2A ARs of rat brain striatal membrane preparations. Selected compounds were further investigated for their affinity to human A1 and A2A ARs recombinantly expressed in Chinese hamster ovary (CHO) cells. All compounds were additionally investigated for their affinity to human A2B and A3 ARs recombinantly expressed in CHO cells to determine their AR subtype selectivity. […] It is well known that all xanthine derivatives lacking a ribose moiety, including tricyclic compounds, can only block ARs, but never act as AR agonists; therefore, additional functional studies were not required. […] Potent MAO-B inhibitors were additionally investigated for inhibition of human MAO-A to assess their selectivity. Results are presented in Tables 1–6, and data of standard ligands are included for comparison.

recombinant human MAO-A = biological target: T8, recombinant human MAO-A (Homo sapiens, UniProt P21397); test: Monoamine oxidase assay (Amplex Red), MAO-A; format: biochemical
T8 construct: purchased Sigma-Aldrich M7316; host or cells: baculovirus-infected insect cells
T8 sequence (P21397 1-527): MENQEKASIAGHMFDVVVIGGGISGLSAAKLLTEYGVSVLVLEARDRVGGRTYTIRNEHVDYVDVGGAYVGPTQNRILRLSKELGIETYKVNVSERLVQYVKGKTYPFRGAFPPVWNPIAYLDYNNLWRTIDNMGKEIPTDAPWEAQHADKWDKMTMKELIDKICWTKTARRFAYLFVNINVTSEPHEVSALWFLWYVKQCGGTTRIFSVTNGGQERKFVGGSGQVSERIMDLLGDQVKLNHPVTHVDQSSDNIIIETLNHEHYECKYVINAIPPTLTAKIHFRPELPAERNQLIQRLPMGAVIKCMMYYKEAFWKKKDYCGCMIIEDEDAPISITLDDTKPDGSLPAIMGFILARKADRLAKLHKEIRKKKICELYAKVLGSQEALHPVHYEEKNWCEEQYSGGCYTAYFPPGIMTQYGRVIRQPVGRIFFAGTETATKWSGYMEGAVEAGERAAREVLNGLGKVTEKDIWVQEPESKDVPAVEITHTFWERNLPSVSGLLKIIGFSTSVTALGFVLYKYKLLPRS
Description: The determination of MAO-A and MAO-B inhibition was performed using commercially available recombinant human MAO-A and MAO-B enzymes expressed in baculovirus-infected insects sells (Sigma-Aldrich, M7316 and M7441) applying the commercially available Amplex® Red monoamine oxidase assay kit (Invitrogen A12214). The assays were performed as previously described. The determination of rat MAO-B inhibition was performed using mitochondrial-enriched fractions from male Sprague Dawley rat livers. […]

recombinant human MAO-B [3] = biological target: T6, recombinant human MAO-B; conditions: human (h); Figure 2 and introduction; ref Chen et al., 2002; Pretorius et al., 2008; Wang et al., 2017; Stössel et al., 2013; cited from earlier work

T3 sequence (P30543 whole entry): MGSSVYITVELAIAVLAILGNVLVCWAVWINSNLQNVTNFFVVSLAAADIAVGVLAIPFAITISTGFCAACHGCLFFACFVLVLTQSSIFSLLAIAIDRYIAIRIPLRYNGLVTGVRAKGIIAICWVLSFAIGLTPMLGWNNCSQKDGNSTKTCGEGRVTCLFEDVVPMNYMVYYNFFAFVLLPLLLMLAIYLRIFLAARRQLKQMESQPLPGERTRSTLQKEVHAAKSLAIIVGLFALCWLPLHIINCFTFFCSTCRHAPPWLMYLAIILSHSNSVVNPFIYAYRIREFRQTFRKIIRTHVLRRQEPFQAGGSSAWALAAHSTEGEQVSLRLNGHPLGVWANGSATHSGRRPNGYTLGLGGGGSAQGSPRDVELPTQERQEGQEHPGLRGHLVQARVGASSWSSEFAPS
T7 sequence (P29274 whole entry): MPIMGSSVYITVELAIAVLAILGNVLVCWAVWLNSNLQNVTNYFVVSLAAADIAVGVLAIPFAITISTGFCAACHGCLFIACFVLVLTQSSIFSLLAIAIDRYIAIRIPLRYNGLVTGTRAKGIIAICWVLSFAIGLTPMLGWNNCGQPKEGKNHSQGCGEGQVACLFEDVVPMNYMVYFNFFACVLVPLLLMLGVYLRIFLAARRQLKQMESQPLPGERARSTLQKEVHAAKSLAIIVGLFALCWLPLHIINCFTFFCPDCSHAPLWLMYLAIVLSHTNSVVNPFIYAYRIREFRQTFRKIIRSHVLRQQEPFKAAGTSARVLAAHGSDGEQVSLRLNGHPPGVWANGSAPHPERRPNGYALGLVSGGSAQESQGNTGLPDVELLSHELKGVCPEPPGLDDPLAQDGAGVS

| Ki (human A1 AR) | Ki (rat A1 AR) | % inhibition of radioligand binding at indicated concentration, A2A vs. [^3H]MSX-2 (rat A2A AR; at 1,000 nM) | Ki (rat A2A AR) | Ki (human A2B AR; CHO cell membranes, n = 2 (n = 3 where marked a), read-out: Ki ± SEM, A2B vs. [^3H]PSB-603) | inhibition at 1 µM (human A2B AR; at 1,000 nM, read-out: % inhibition of radioligand binding at indicated concentration, A2B vs. [^3H]PSB-603) | Ki (human A3 AR) | inhibition at 10 µM (recombinant human MAO-B [1]; at 10,000 nM (10 μM), read-out: % inhibition at indicated concentration, Human MAO-B) | IC50 (recombinant human MAO-B [1]) | solubility ([2]; aqueous buffer, pH 4, read-out: Solubility, pH 4) | solubility ([2]; aqueous buffer, pH 7.4, read-out: Solubility, pH 7.4) | solubility ([2]; simulated gastric fluid, pH 1, read-out: Solubility, pH 1) | Ki (human A2A AR) | inhibition at 10 µM (recombinant human MAO-A; at 10,000 nM, read-out: % inhibition at indicated concentration, Human MAO-A) | IC50 (recombinant human MAO-A; n = 3, read-out: IC50 ± SEM, Human MAO-A) | SMILES | IC50 (recombinant human MAO-B [3]) |
| --- | --- | --- | --- | --- | --- | --- | --- | --- | --- | --- | --- | --- | --- | --- | --- | --- |
| 129 ± 9 nM | 51.4 ± 14.7 nM | 32% | > 1000 nM | > 1000 nM | 2% | 4060 nM | 41% | > 10000 nM | 0.9 µg/mL (≈ 2.14 µM) | 0.7 µg/mL (≈ 1.66 µM) | 300 µg/mL (≈ 712 µM) |  |  |  | CCn1c(=O)c2c(nc3n2CCN(Cc2ccccc2C(F)(F)F)C3)n(CC)c1=O [Compound 15f, 1,3-diethyl-8-(2-(trifluoromethyl)benzyl)-6,7,8,9-tetrahydropyrazino[2,1-f]purine-2,4(1H,3H)-dione] |  |
| 475 ± 47 nM | 152 ± 12 nM |  | 675 ± 104 nM |  |  | 12700 nM |  | 2910 nM |  |  |  | 2110 nM | 9% | > 10000 nM | CCCn1c(=O)c2c(nc3n2CCN(Cc2ccc(Cl)c(Cl)c2)C3)n(C)c1=O [Compound 18] |  |
|  |  |  |  |  |  |  |  |  |  |  |  |  |  |  | Cn1c(=O)c2c(nc(/C=C/C=C/c3cccc(Br)c3)n2C)n(C)c1=O [Compound 4] | 37.9 nM |

From article PMC6028563, “Probing Substituents in the 1- and 3-Position: Tetrahydropyrazino-Annelated Water-Soluble Xanthine Derivatives as Multi-Target Drugs With Potent Adenosine Receptor Antagonistic Activity” (Frontiers in Chemistry, 2018)
